Test results as given in ChEMBL document CHEMBL1201862, “PubChem BioAssay data set” (2004).
Calls of active or inactive are those of the source.

Key:
[1] = target: T1, Replicative DNA helicase DnaB (Mycobacterium tuberculosis, UniProt P9WMR3); assay: DnaB intein splicing inhibitors, dose response, biochemical, cell-free fluorescence (AID 449749); assay type: functional
T1 sequence (P9WMR3 whole entry): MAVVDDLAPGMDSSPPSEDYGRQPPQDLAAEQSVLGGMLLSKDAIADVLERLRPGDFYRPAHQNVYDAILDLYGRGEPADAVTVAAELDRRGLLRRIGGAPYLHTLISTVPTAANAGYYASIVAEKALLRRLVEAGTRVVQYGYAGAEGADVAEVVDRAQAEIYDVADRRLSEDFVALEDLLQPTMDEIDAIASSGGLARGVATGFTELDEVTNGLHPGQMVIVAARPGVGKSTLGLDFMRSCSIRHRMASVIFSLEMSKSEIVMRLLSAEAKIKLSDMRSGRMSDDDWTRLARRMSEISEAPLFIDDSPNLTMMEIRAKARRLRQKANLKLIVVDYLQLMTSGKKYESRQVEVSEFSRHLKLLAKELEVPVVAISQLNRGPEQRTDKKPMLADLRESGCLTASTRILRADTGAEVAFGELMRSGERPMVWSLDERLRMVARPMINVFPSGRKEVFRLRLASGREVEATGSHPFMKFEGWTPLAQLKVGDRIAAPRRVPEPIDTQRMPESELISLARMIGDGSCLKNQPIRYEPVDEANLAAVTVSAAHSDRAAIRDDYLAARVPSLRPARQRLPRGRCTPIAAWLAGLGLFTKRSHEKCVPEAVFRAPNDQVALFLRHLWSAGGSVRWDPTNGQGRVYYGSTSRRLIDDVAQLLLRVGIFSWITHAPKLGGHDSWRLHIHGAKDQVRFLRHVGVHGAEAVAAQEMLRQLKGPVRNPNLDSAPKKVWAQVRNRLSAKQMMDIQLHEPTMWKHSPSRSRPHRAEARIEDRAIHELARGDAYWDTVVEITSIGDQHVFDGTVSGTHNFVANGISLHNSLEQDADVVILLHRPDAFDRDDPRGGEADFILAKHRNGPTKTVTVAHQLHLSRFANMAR

Protein RecA = target: T2, Protein RecA (Mycobacterium tuberculosis, UniProt P9WHJ3); assay: Fluorescence Cell-Free Homogeneous Dose Retest to Identify Inhibitors of RecA-Intein Splicing Activity. [Related pubchem assays (depositor defined):AID2097, AID2223, AID489010, AID492950]; assay type: functional
T2 sequence (P9WHJ3 whole entry): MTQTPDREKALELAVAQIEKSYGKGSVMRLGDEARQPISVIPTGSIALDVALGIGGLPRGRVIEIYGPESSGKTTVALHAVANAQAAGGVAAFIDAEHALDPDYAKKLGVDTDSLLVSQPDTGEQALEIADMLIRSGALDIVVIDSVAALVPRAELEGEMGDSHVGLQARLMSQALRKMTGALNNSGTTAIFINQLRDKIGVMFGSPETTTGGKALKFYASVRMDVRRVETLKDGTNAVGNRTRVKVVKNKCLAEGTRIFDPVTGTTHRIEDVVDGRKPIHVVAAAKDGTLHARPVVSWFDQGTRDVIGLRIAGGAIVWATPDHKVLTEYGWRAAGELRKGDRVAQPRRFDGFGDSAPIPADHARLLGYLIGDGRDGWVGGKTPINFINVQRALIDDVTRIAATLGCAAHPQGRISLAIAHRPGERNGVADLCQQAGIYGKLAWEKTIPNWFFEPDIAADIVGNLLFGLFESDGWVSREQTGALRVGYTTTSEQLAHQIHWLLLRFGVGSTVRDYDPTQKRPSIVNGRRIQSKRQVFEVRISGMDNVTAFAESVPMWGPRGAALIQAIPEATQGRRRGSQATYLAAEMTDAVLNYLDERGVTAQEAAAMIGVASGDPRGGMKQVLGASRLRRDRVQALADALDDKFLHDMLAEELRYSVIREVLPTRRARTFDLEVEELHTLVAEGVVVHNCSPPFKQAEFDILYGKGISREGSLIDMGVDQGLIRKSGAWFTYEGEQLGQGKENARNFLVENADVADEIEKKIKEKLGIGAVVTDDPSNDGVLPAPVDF

Caspase-6 = target: T3, Caspase-6 (Homo sapiens, UniProt P55212); assay: human caspase-6 inhibitors, dose response, biochemical, VEID-R110 fluorescence, cherry-pick (AID 720632)
T3 sequence (P55212 whole entry): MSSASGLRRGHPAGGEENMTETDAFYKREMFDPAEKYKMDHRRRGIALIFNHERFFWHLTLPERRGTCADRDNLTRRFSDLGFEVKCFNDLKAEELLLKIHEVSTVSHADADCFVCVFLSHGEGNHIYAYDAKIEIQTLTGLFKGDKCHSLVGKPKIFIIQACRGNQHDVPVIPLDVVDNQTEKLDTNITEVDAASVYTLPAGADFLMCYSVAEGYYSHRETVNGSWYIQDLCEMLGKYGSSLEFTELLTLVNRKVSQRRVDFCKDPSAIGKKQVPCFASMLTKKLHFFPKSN

[2] = target: T4, Tyrosyl-DNA phosphodiesterase 2 (Homo sapiens, UniProt O95551); assay: human TDP2 enzyme inhibitors, dose response, biochemical, epi absorbance, IC50 (AID 743297)
T4 sequence (O95551 whole entry): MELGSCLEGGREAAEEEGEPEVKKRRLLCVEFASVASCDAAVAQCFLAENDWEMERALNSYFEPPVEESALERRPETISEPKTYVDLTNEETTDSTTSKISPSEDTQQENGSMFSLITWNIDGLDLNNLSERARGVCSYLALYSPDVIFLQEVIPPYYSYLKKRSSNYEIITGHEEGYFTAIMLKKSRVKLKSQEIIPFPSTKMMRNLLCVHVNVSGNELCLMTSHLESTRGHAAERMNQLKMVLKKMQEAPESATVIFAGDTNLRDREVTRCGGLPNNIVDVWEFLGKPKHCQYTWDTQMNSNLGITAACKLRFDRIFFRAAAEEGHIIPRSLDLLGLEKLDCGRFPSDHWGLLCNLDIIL

[3] = target: Luciferin 4-monooxygenase (Photinus pyralis, UniProt P08659); assay: firefly luciferase enzyme inhibitors, dose response, biochemical, luminescence (AID 1891)
[4] = Luminescence Cell-Based Dose Confirmation HTS to Identify Inhibitors of Platelet Dense Granule Release. [Related pubchem assays: 1663 (Primary HTS), 1678 (Summary of Project)]; assay type: functional
INS1 = assay: beta cell apoptosis inhibitors, cytokine rescue, dose response, luminescence, retest (AID 449756); assay type: functional, cell-based; conditions: Rattus norvegicus;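 also: cell death triggered by IL-1 beta plus TNF-alpha plus IFN-gamma mixture; protective hits raise ATP signal compared with cytokine alone wells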
[5] = Shn3 3'UTR reporter inhibitors, dose response, cell-based, Clone20 osteoblasts, firefly luciferase, cherry-picked (AID 624132); assay type: functional;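 also: firefly luciferase luminescence from reporter carrying the Shn3 3'UTR in osteoblasts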
[6] = HepG2 cell cytotoxicity, dose response, cytotoxicity control for Shn3 inhibitor project, CellTiter-Glo, cherry-picked (AID 624134); assay type: functional, cell-based
[7] = control 3'UTR Renilla luciferase suppression, dose response, counter-screen for Shn3 inhibitor project, cell-based, Clone20-Shn3RL, cherry-picked (AID 624133); assay type: functional
Protein Wnt-3a = Protein Wnt-3a (Mus musculus, UniProt P27467); assay: Wnt3a-driven reporter signaling inhibition, dose response, selectivity assay for Gli-SUFU antagonist project, Wnt-LIGHT cells, luminescence (AID 651570); assay type: functional; conditions: read-out: IC50_Mean;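 also: Wnt-LIGHT reporter cells stimulated with conditioned medium from Wnt3a-producing cells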
Nonstructural protein 1 = Nonstructural protein 1 (Influenza A virus, UniProt Q194T2); assay type: functional, Influenza A virus (A/California/07/2009(H1N1))
[8] = target: Heat shock protein HSP 90-alpha (Homo sapiens, UniProt P07900); assay type: functional, organism-based
[9] = target: T5, Histone-lysine N-methyltransferase NSD2 (Homo sapiens, UniProt O96028); assay type: biochemical
T5 sequence (O96028 whole entry): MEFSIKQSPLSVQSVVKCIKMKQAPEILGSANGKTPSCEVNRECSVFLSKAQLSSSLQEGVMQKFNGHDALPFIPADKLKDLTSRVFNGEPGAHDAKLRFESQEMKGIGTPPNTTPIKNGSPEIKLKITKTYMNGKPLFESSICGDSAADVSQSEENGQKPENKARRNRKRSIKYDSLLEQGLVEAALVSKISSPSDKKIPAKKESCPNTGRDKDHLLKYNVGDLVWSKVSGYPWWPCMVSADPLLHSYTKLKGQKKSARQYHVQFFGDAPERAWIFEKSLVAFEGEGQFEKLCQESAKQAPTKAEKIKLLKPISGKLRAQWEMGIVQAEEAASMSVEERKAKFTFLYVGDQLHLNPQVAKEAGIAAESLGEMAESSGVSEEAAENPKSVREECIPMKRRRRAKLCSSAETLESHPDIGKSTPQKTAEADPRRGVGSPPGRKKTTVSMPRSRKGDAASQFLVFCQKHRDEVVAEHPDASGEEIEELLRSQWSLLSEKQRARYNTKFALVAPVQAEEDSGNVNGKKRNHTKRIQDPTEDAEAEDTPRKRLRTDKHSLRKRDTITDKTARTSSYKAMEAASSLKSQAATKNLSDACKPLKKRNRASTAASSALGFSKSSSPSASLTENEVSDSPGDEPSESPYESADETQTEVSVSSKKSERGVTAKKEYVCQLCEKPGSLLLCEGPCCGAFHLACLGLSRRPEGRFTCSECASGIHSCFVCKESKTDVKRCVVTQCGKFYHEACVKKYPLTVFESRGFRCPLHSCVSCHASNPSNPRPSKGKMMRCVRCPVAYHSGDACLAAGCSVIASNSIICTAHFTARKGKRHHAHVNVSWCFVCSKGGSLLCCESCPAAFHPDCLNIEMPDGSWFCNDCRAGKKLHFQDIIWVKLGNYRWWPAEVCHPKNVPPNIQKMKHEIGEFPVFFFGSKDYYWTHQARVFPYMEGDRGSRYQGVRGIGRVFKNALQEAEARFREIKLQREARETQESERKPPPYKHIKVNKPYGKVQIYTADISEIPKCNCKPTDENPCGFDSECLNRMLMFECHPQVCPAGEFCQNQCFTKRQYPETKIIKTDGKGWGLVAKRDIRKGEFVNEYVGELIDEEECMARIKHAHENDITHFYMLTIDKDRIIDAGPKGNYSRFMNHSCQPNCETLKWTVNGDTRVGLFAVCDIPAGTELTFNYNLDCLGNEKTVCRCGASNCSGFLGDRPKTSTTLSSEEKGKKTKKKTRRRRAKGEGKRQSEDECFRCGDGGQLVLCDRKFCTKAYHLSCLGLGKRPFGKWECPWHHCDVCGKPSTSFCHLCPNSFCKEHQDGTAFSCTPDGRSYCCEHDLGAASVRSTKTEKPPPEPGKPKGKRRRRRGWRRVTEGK

Nonstructural protein 1, sequence (Q194T2 whole entry): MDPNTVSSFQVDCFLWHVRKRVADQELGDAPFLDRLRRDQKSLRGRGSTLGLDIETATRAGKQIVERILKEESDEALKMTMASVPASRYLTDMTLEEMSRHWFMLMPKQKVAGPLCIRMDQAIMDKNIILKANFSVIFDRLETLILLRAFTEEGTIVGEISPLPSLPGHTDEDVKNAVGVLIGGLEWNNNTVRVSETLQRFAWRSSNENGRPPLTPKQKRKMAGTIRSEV
Luciferin 4-monooxygenase, sequence (P08659 whole entry): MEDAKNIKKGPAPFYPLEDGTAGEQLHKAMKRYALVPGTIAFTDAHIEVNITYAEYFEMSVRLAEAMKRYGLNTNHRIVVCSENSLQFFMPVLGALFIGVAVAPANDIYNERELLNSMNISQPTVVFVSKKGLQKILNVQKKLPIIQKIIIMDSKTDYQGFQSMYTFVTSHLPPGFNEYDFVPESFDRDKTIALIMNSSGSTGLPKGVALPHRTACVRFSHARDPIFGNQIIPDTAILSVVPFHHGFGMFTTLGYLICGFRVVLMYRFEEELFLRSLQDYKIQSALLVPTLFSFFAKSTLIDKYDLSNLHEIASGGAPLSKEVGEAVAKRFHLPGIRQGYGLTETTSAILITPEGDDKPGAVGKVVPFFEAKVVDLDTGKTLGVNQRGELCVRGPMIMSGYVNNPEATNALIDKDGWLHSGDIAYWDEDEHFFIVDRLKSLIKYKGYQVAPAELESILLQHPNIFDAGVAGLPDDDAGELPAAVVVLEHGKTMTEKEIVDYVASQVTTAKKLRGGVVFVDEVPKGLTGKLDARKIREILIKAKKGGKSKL
Protein Wnt-3a, sequence (P27467 whole entry): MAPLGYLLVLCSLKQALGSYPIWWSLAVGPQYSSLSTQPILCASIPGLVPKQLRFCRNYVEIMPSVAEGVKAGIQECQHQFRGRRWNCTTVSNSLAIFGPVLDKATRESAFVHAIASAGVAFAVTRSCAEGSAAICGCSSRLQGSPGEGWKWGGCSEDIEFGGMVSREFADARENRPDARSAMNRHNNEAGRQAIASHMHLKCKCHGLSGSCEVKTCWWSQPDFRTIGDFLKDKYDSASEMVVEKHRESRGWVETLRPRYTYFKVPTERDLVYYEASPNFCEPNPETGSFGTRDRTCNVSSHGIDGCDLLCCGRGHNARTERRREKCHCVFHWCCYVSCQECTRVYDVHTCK

SMILES: Cc1nnc(N/N=C/c2ccccc2O)n1N
- AC50 [1]: 7.65 µM (active)
- EC50 (Protein RecA): 4.08 µM (active)
- AC50 (Caspase-6): 13.3 µM (active)
- IC50 [2]: > 128 µM (inactive)

SMILES: Cc1cccnc1CN1CCN(C(=O)c2cc(COc3ccc4ncccc4c3)on2)CC1
- EC50 [3]: > 112 µM (not active)
- EC50 [4]: > 112 µM (not active)
- AC50 (INS1): 3.77 µM (active)
- AC50 [5]: 2.1 µM (active)
- AC50 [6]: 7.57 µM (active)
- AC50 [7]: 2.78 µM (active)
- IC50 (Protein Wnt-3a): 1.62 µM (active)

SMILES: CCN1/C(=C/c2ccc3cc(C)cc(C)c3[n+]2CC)Sc2cc(C)ccc21
- IC50 (Nonstructural protein 1): 17.6 µM (active)
- AC50 [8]: 2.86 µM (active)
- AC50 [9]: 7.93 µM (active)
